Source: PubChem BioAssay AID2060619 (Molecular Pharmacology Branch, DTP, NCI, 2025)
Where “and” joins values, the source holds several entries; their conditions need not be identical. Identical values can stand only once.

System: 323965-272-R-J2-PDC complex spheroid viability
Assay: Anticancer human tumor 323965-272-R-J2-PDC patient-derived pancreatic carcinoma cell line growth inhibition [CLK]
Details: for viability, T/C: stronger effect = lower value
In short: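 Patient-derived tumor cells grown as complex spheroids with HUVEC endothelial cells and mesenchymal stem cells, treated with drug combinations. Concentrations descend in half-log steps from near clinical Cmax, or from 10 microM if Cmax unknown.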

[1] = curve of first compound, second compound 0.0316 µM
[2] = curve of first compound, second compound 0.1 µM
[3] = curve of first compound, second compound 0.316 µM
[4] = curve of first compound, second compound 1 µM
[5] = curve of first compound, second compound 3.16 µM
[6] = curve of first compound, second compound 10 µM
[7] = second compound 0.0316 µM, first compound 0.0316 µM
[8] = second compound 0.0316 µM, first compound 0.1 µM
[9] = second compound 0.0316 µM, first compound 0.316 µM
[10] = second compound 0.0316 µM, first compound 1 µM
[11] = second compound 0.0316 µM, first compound 3.16 µM
[12] = second compound 0.0316 µM, first compound 10 µM
[13] = second compound 0.1 µM, first compound 0.0316 µM
[14] = second compound 0.1 µM, first compound 0.1 µM
[15] = second compound 0.1 µM, first compound 0.316 µM
[16] = second compound 0.1 µM, first compound 1 µM
[17] = second compound 0.1 µM, first compound 3.16 µM
[18] = second compound 0.1 µM, first compound 10 µM
[19] = second compound 0.316 µM, first compound 0.0316 µM
[20] = second compound 0.316 µM, first compound 0.1 µM
[21] = second compound 0.316 µM, first compound 0.316 µM
[22] = second compound 0.316 µM, first compound 1 µM
[23] = second compound 0.316 µM, first compound 3.16 µM
[24] = second compound 0.316 µM, first compound 10 µM
[25] = second compound 1 µM, first compound 0.0316 µM
[26] = second compound 1 µM, first compound 0.1 µM
[27] = second compound 1 µM, first compound 0.316 µM
[28] = second compound 1 µM, first compound 1 µM
[29] = second compound 1 µM, first compound 3.16 µM
[30] = second compound 1 µM, first compound 10 µM
[31] = second compound 3.16 µM, first compound 0.0316 µM
[32] = second compound 3.16 µM, first compound 0.1 µM
[33] = second compound 3.16 µM, first compound 0.316 µM
[34] = second compound 3.16 µM, first compound 1 µM
[35] = second compound 3.16 µM, first compound 3.16 µM
[36] = second compound 3.16 µM, first compound 10 µM
[37] = second compound 10 µM, first compound 0.0316 µM
[38] = second compound 10 µM, first compound 0.1 µM
[39] = second compound 10 µM, first compound 0.316 µM
[40] = second compound 10 µM, first compound 1 µM
[41] = second compound 10 µM, first compound 3.16 µM
[42] = second compound 10 µM, first compound 10 µM
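Note: spheroids exposed to agents for seven days before readout.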
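Throughout, for viability, T/C: percent of DMSO vehicle control wells so 100% = untreated growth.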

`C=C(F)C(=O)N1CCN(c2nc(OCC3CCCN3C)nc3c2CCN(c2cccc4cccc(Cl)c24)C3)CC1CC#N` (stereo not drawn) + CN1CCN(c2cc(C(=O)Nc3cc4cc(-c5cnn(C)c5)ccc4cn3)ccn2)CC1 showed an IC50 [1] of over 10000 nM, an IC50 [2] of 31.6 nM and an IC50 [3] of under 31.6 nM. For the same compound, the IC50 [4] was under 31.6 nM, the IC50 [5] was under 31.6 nM and the IC50 [6] was under 31.6 nM. The viability, T/C [7] was 59%, the viability, T/C [8] was 56.5% and the viability, T/C [9] was 48.5%. It also gave a viability, T/C [10] of 74.6%, a viability, T/C [11] of 84.4% and a viability, T/C [12] of 29.1%. The viability, T/C [13] was 45.1%, the viability, T/C [14] was 44.3% and the viability, T/C [15] was 38%. For the same compound, the viability, T/C [16] was 44.3%, the viability, T/C [17] was 58.5% and the viability, T/C [18] was 25.3%. It also gave a viability, T/C [19] of 15.6%, a viability, T/C [20] of 14.8% and a viability, T/C [21] of 14.6%. For the same compound, the viability, T/C [22] was 15.5%, the viability, T/C [23] was 13.2% and the viability, T/C [24] was 5.86%. The viability, T/C [25] was 2.38%, the viability, T/C [26] was 2.52% and the viability, T/C [27] was 2.56%. It also gave a viability, T/C [28] of 2.45%, a viability, T/C [29] of 1.97% and a viability, T/C [30] of 0.73%. It also gave a viability, T/C [31] of 2.89%, a viability, T/C [32] of 2.94% and a viability, T/C [33] of 2.9%. It also gave a viability, T/C [34] of 2.86%, a viability, T/C [35] of 4.1% and a viability, T/C [36] of 0.62%. It also gave a viability, T/C [37] of 3.59%, a viability, T/C [38] of 3.43% and a viability, T/C [39] of 2.46%. For the same compound, the viability, T/C [40] was 2.58%, the viability, T/C [41] was 3.56% and the viability, T/C [42] was 0.3%.

With `C=CC(=O)N1CCN(c2nc(=O)n(-c3c(C)ccnc3C(C)C)c3nc(-c4c(O)cccc4F)c(F)cc23)C(C)C1` (stereo not drawn) the viability, T/C (compound 0.0316 µM) was 75.1% and 73.7%, the viability, T/C (compound 0.1 µM) was 60.8% and 66.9% and the viability, T/C (compound 0.316 µM) was 55.2% and 68.3%. For the same compound, the viability, T/C (compound 1 µM) was 67.1% and 84.3%, the viability, T/C (compound 3.16 µM) was 76% and 71.3% and the viability, T/C (compound 10 µM) was 62.9% and 66.1%. The IC50 (curve of compound) was over 10000 nM.

Work on `O=c1[nH]cc(F)c(=O)[nH]1` + CN1CCN(c2cc(C(=O)Nc3cc4cc(-c5cnn(C)c5)ccc4cn3)ccn2)CC1 yielded an IC50 [1] of 7400 nM, an IC50 [2] of 3150 nM and an IC50 [3] of under 31.6 nM. The IC50 [4] was under 31.6 nM, the IC50 [5] was under 31.6 nM and the IC50 [6] was under 31.6 nM. The viability, T/C [7] was 99.5%, the viability, T/C [8] was 96.8% and the viability, T/C [9] was 99.3%. The viability, T/C [10] was 85.8%, the viability, T/C [11] was 63% and the viability, T/C [12] was 45.4%. It also gave a viability, T/C [13] of 62.8%, a viability, T/C [14] of 85.4% and a viability, T/C [15] of 73.5%. It also gave a viability, T/C [16] of 67.4%, a viability, T/C [17] of 50.2% and a viability, T/C [18] of 36.7%. For the same compound, the viability, T/C [19] was 26.1%, the viability, T/C [20] was 27% and the viability, T/C [21] was 26.6%. For the same compound, the viability, T/C [22] was 25.2%, the viability, T/C [23] was 24.5% and the viability, T/C [24] was 22.6%. The viability, T/C [25] was 3.34%, the viability, T/C [26] was 2.81% and the viability, T/C [27] was 3.78%. It also gave a viability, T/C [28] of 3.65%, a viability, T/C [29] of 4.75% and a viability, T/C [30] of 3.29%. For the same compound, the viability, T/C [31] was 4.71%, the viability, T/C [32] was 4.34% and the viability, T/C [33] was 4.13%. For the same compound, the viability, T/C [34] was 4.08%, the viability, T/C [35] was 6.26% and the viability, T/C [36] was 5.19%. For the same compound, the viability, T/C [37] was 3.98%, the viability, T/C [38] was 3.73% and the viability, T/C [39] was 3.94%. For the same compound, the viability, T/C [40] was 4.27%, the viability, T/C [41] was 7.34% and the viability, T/C [42] was 3.84%.

In the case of `CCN1CCN(Cc2ccc(Nc3ncc(F)c(-c4cc(F)c5nc(C)n(C(C)C)c5c4)n3)nc2)CC1`, the viability, T/C (compound 0.00316 µM) is reported as 91.3% and 105%, the viability, T/C (compound 0.01 µM) is reported as 95.6% and 95% and the viability, T/C (compound 0.0316 µM) is reported as 81.2% and 68.3%. For the same compound, the viability, T/C (compound 0.1 µM) was 67.5% and 69.9%, the viability, T/C (compound 0.316 µM) was 73.3% and 68.3% and the viability, T/C (compound 1 µM) was 72.3% and 68.7%. For the same compound, the IC50 (curve of compound) was over 1000 nM.
